The target of one test is p97 (Homo sapiens, UniProt P55072). The experiment in a line: P97 ATPase biochemical assay (ADP Glo). The settings on record: 20 nM p97, 20 μM ATP, 37° C. for 15 minutes. Here is the method: The ATPase assay is performed according the following protocol: Purified enzyme (20 nM p97), substrate (20 μM ATP) and a dose titration of compounds are mixed in buffer (50 mM TRIS pH 7.5, 20 mM MgCl2, 0.02% TX-100, 1 mM DTT, 0.2% (v/v) glycerol) and incubated at 37° C. for 15 minutes. The reaction is terminated and the level of product generated is measured using the ADP Glo Assay Kit (Promega, Madison Wis.). Plotting product generated versus compound concentration and using a four-parameter fit model generates an IC50 value for each compounds.
Sequence of p97 (P55072 whole entry, the tested form may be a part): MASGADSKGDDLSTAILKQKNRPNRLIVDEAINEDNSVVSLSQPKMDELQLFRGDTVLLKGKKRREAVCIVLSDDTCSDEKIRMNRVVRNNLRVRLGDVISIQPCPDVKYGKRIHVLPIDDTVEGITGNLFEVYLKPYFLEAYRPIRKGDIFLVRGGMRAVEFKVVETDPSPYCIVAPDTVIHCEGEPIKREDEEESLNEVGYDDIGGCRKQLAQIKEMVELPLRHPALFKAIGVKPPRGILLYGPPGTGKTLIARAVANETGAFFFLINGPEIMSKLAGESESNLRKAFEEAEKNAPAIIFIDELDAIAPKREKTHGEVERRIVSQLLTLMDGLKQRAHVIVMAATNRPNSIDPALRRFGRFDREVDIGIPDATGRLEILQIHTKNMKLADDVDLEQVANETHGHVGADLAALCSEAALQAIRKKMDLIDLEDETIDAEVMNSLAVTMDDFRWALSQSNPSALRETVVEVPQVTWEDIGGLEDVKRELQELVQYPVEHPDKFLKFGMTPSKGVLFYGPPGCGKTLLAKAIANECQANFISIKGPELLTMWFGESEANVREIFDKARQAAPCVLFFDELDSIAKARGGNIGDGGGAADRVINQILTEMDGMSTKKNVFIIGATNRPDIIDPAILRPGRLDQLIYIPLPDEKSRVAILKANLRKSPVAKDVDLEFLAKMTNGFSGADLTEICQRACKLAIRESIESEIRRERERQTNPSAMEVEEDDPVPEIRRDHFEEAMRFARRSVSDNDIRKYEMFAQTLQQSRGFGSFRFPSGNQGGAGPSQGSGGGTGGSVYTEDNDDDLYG
The p97 assay is an initial screening assay used to determine inhibitory activity of the fused pyrimidine compounds of the invention against the p97 complex. As discussed above, inhibition of activity of the p97 proteosome complex can enable apoptosis and cause elimination of neoplastic cells (cancer cells). The method follows that of Christianson in Nat. Cell Biol., (2011) 14:93.
Assay Buffer is a mixture of 50 mM TRIS pH 7.5, 20 mM MgCl2, 0.02% TX-100, 1 mM DTT and 0.2% (v/v) Glycerol. The well plate is Platetype: Corning 3674, 384w plate. The identification kit is an ADP glo kit (Promega): stop buffer, detection reagent.
Serial dilute compound in DMSO in a 1:3.33-fold 10 point serial dilution.
in each well of 384w plate add the following reagents:
0.5 μL compound serial diluted in DMSO (Final Conc. 10%)
2 μL ATP (Final Conc.=20 uM, diluted in assay buffer)
2.5 μL p97 (Final Conc.=20 nM, diluted in assay buffer)
Incubate at 37 deg C. for 15 min.
Add 5 μL of stop buffer, incubate at RT for 40 min.
Add 10 μL of detection reagent, incubate at RT for 30 min.
Read luminescence on Envision plate reader.
Upon obtaining the data from the luminescence reading, the data may be analyzed as follows:
Normalize luminescence data using no enzyme (full inhibition) and no compound (no inhibition) controls. Plot normalized luminescence data against log-transformed concentration values and fit to a sigmoidal curve to determine IC50 values (done in Collaborative Drug Discovery software).
(In general: ADP-Glo first removes unused ATP, then detects ADP through luciferase.)

For another test, the system named is A549 cells. The experiment in a line: Cultured cancer cell viability assay (cell titer glo, CTG) in A549 cells. The settings on record: Homo sapiens, read-out: A549 CTG IC50. It is filed as cell-based. The source says:
Anti-tumor effects are monitored in cultured cancer cells after several days of compound treatment. The cell titer glo assay (Promega) measures the amount of ATP present as a proxy for cellular viability. Cellular counting is done using high-content microscopy followed by image analysis. A hanging drop 3D-culture system (3D Biomatrix) is used followed by cell titer glo to measure growth in a tumor-like environment.
The cellular assay provides information about the anti-neoplastic activity of the compounds of the invention. The compounds are tested against cultured cancer cells to determine whether or not the compounds of the invention are capable of intersecting with cancer cells to minimize or eliminate such cells. The assay involves establishing colonies of such cells and then treating them with the test compound under specified conditions and analysis regima to determine results.
(§1) Cell Plating: • Seed cells ˜16 hrs prior to compound treatment • Plate 25 μL of A549 cells in every well of 384-well plate using multidrop. • Two (2) black plates for IF at 2500 cells/well • Let plate sit at room temp for 10-15 minutes prior to putting in incubator to • allow cells to stick in middle of plate. • One (1) white plate for viability at 500 cells/well.
(§2) Day 2 Treatment of Cultured Cells with Test Compounds • Treat Cells: • Serial dilute compounds with a 10 point 2-fold serial dilution in DMSO to make 250× stock compound solution • Dilute compounds 1:125 in cell culture media to make a 2× solution Add • 25 μl of dilution compounds to cell plates in well duplicates Put cells back in incubator (6 hr incubation for black plates, 72 hr incubation for white plates).
Viability Assay: • Thaw an aliquot of frozen cell titer glo (Promega G7572) at room temperature. • Add 45 mL of NaCl/PBS solution to 5 ml of cell titer glo (10×). • Remove white plates from incubator, leave at room temp for 30 minutes. • Add 25 μl of diluted cell titer glo to each well. • Shake plate for >1 minute. • Incubate plate for >5 minutes to stabilize luminescence. • Luminescence is stable for up to 3 hours. • Read luminescence on plate reader

Test [1] relates to K48-Ub (lysine-48 chain linkage of poly-ubiquitin) in A549 cells. The experiment in a line: A549 K48-Ub accumulation, immunofluorescence high-content imaging. It is filed as cell-based. The settings on record: Homo sapiens, 6 hr incubation. Here is the method: Image-analysis is used to generate quantitative data from these assays that can be fit to a four-parameter sigmoid curve to derive IC50 values. Substrates of the ubiquitin-proteasome system, such as p53, are monitored after tumor cell lines are incubated with compounds for several hours. Accumulation of these proteins indicates an inhibition of proteasome-mediated degradation. Accumulation of lysine-48 chain linkage of poly-ubiquitin is also monitored by immunofluorescence as an indicator of ubiquitin-proteasome system inhibition. Both LC3 and SQSTM1 are mediators of autophagy. The localization and amounts of these proteins are monitored by immunofluorescence and report on the activity and inhibition of autophagy in response to p97 inhibition.
as §1, §2
Fix/Stain Black Plates: • Incubate cells in black plates with compound at 37 deg C. for 6 hrs. add 15 μL of 16% Paraformaldehyde (PFA) directly into media of each well, incubate at room temp for 5 min, flick plate and wash in 50 μL of PBS block in 50 μL of Blocking Buffer for 30 minutes (can go up to several hours) • Blocking buffer: 1×PBS, 1% BSA, 0.3% Triton-X 100, Hoechst (1:10,000) incubate in 25 μL of primary antibody in blocking buffer at 4 deg C. over night
Secondary Antibodies: • AlexaFluor488 Goat anti-Rabbit 1:2,000 (Life Tech A11008) • AlexaFluor555 Goat anti-Mouse 1:2.000 (Life Tech A21422)
Day 3/4 • Black Plate Staining (cont): • wash black plates 3× in 50 μL PBS (˜5 min each) incubate in 25 μl of secondary antibody (1:2,000) in blocking buffer for 1-2 hrs at room temp (alexafluor488-anti-Rabbit/alexafluor555-anti-Mouse) • wash 4× in 50 μL PBS (˜5 min each) • leave plates in PBS for imaging • clean bottom of plates with 70% EtOH
Imaging: • Image plates in high content microscope with 405 nm, 488 nm and 555 nm filters
Data Analysis: • Nuclear counts and cellular intensities of each markers are measured using Hoechst as a nuclear marker with an automated image analysis protocol using Matlab software (Math Works)

Where [2] appears, read: A549 cells, 72 hr incubation, cell titer glo.

pIC50: −log10 of the molar value. Where two headings read alike, the source gives them in different places.

In general, pIC50 refers to the negative decadic logarithm of the IC50, by convention in mol/L. As for `NC(=O)c1cccc2c1cnn2-c1nc2c(c(NCc3ccccc3)n1)CNCC2` [FF33, 1-(4-(benzylamino)-5,6,7,8-tetrahydropyrido[4,3-d]pyrimidin-2-yl)-1H-indazole-4-carboxamide], the negative logarithm of the IC50 (pIC50) on p97 was > 6.00.
In the case of `Cc1cc2c(C(N)=O)cccc2n1-c1nc(NCc2ccccc2)c2c(n1)OCC2` [FF08, 1-(4-(benzylamino)-5,6-dihydrofuro[2,3-d]pyrimidin-2-yl)-2-methyl-1H-indole-4-carboxamide], the negative logarithm of the IC50 (pIC50) at p97 was > 7.00; with A549 cells (setting [2]), > 5.52; in test [1], > 5.52.
As for `NC(=O)c1cccc2c1cnn2-c1nc(NCc2cccc(F)c2)c2c(n1)OCCC2` [FF16, 1-(4-((3-fluorobenzyl)amino)-6,7-dihydro-5H-pyrano[2,3-d]pyrimidin-2-yl)-1H-indazole-4-carboxamide], the negative-log IC50 (pIC50) against p97 is > 7.52; in the test with A549 cells (setting [2]), > 5.00.
With `NC(=O)c1cccc2c1cnn2-c1nc2c(c(NCc3ccccc3)n1)COCC2` [FF04, 1-(4-(benzylamino)-7,8-dihydro-5H-pyrano[4,3-d]pyrimidin-2-yl)-1H-indazole-4-carboxamide], on p97, the pIC50 was > 6.52.
For `Cc1oc2c(C(N)=O)cccc2c1-c1nc2c(c(NCc3cccc(F)c3)n1)COCC2` [FF22, 3-(4-((3-fluorobenzyl)amino)-7,8-dihydro-5H-pyrano[4,3-d]pyrimidin-2-yl)-2-methylbenzofuran-7-carboxamide], on p97, the negative logarithm of the IC50 (pIC50) is > 6.00.
As to `NC(=O)c1cccc2c1cnn2-c1nc(NCc2ccccc2)c2c(n1)OCCC2` [FF28, 1-(4-(benzylamino)-6,7-dihydro-5H-pyrano[2,3-d]pyrimidin-2-yl)-1H-indazole-4-carboxamide], the pIC50 was > 7.00 on p97, > 5.52 with A549 cells (setting [2]) and > 5.52 in test [1].
Take `NC(=O)c1cccc2c1cc(CO)n2-c1nc2c(c(NCc3ccccc3)n1)CCCN2` [FF17, 1-(4-(benzylamino)-5,6,7,8-tetrahydropyrido[2,3-d]pyrimidin-2-yl)-2-(hydroxymethyl)-1H-indole-4-carboxamide]: the pIC50 is > 7.52 against p97 and > 6.00 in the test with A549 cells (setting [2]).
With `Cc1[nH]c2ccccc2c1-c1nc2c(c(NCc3ccccc3)n1)CCCC2` [FF36, N-benzyl-2-(2-methyl-1H-indol-3-yl)-5,6,7,8-tetrahydroquinazolin-4-amine], the pIC50 (in the test with A549 cells (setting [2]); in test [1]) was > 5.00 throughout.
Regarding `COc1nc2c(C(N)=O)cccc2n1-c1nc(NCc2cccc(F)c2)c2c(n1)OCCC2` [FF15, 1-(4-((3-fluorobenzyl)amino)-6,7-dihydro-5H-pyrano[2,3-d]pyrimidin-2-yl)-2-methoxy-1H-benzo[d]imidazole-4-carboxamide], the pIC50 was > 7.52 on p97 and > 5.52 in the test with A549 cells (A549, 72 h).
`Cc1cc2c(C(N)=O)cccc2n1-c1nc2c(c(NCc3cccc(F)c3)n1)NCCC2` [FF25, 1-(4-((3-fluorobenzyl)amino)-5,6,7,8-tetrahydropyrido[3,2-d]pyrimidin-2-yl)-2-methyl-1H-indole-4-carboxamide]: the pIC50 was > 7.52 against p97, > 5.52 in the test with A549 cells (setting [2]) and > 5.52 in test [1].
`Cc1cc2c(C(N)=O)cccc2n1-c1nc(NCc2ccccc2)c2c(n1)C(C)CNC2` (stereo not drawn) [FF19, 1-(4-(benzylamino)-8-methyl-5,6,7,8-tetrahydropyrido[4,3-d]pyrimidin-2-yl)-2-methyl-1H-indole-4-carboxamide]: the negative-log IC50 (pIC50) was > 7.00 against p97, > 5.52 with A549 cells (setting [2]) and > 6.00 in test [1].
For the compound `COc1nc2c(C(N)=O)cccc2n1-c1nc(NCc2ccccc2)c2c(n1)OCCC2` [FF24, 1-(4-(benzylamino)-6,7-dihydro-5H-pyrano[2,3-d]pyrimidin-2-yl)-2-methoxy-1H-benzo[d]imidazole-4-carboxamide], the pIC50 against p97 was > 7.52; in the test with A549 cells (setting [2]), > 5.52; in test [1] it was > 5.52.
Take `Cc1cc2c(C(N)=O)cccc2n1-c1nc(NCc2ccccc2)c2c(n1)N(C)CCC2` [FF29, 1-(4-(benzylamino)-8-methyl-5,6,7,8-tetrahydropyrido[2,3-d]pyrimidin-2-yl)-2-methyl-1H-indole-4-carboxamide]: the pIC50 at p97 is > 7.52; in the test on A549 cells (setting [2]) it was > 5.52; in test [1], > 5.52.
In the case of `Cc1cc2c(C(N)=O)cccc2n1-c1nc(NCc2ccccc2)c2c(n1)C(C)CN(C)C2` (stereo not drawn) [FF13, 1-(4-(benzylamino)-6,8-dimethyl-5,6,7,8-tetrahydropyrido[4,3-d]pyrimidin-2-yl)-2-methyl-1H-indole-4-carboxamide], the pIC50 against p97 is > 7.00.
Take `NC(=O)c1cccc2c1cnn2-c1nc2c(c(NCc3cccc(F)c3)n1)CCCC2` [FF14, 1-(4-((3-fluorobenzyl)amino)-5,6,7,8-tetrahydroquinazolin-2-yl)-1H-indazole-4-carboxamide]: the results for the pIC50 at p97 and in the test with A549 cells (setting [2]) were > 7.00 and > 5.52, respectively.
For `Cc1cc2c(CN)cccc2n1-c1nc(NCc2ccccc2)c2c(n1)OCCC2` [FF31, 2-(4-(aminomethyl)-2-methyl-1H-indol-1-yl)-N-benzyl-6,7-dihydro-5H-pyrano[2,3-d]pyrimidin-4-amine], the pIC50 on p97 was > 6.52.
In the case of `Cc1cc2c(C(N)=O)cccc2n1-c1nc2c(c(NCc3ccccc3)n1)CCNCC2` [FF20, 1-(4-(benzylamino)-6,7,8,9-tetrahydro-5H-pyrimido[4,5-d]azepin-2-yl)-2-methyl-1H-indole-4-carboxamide], the pIC50 against p97 was > 6.52; in the test on A549 cells (A549, 72 h) it was > 5.52.
Consider `CN1CCCc2nc(-n3ncc4c(C(N)=O)cccc43)nc(NCc3cccc(F)c3)c21` [FF11, 1-(4-((3-fluorobenzyl)amino)-5-methyl-5,6,7,8-tetrahydropyrido[3,2-d]pyrimidin-2-yl)-1H-indazole-4-carboxamide], for which, at p97, the pIC50 is > 7.00.
